IC50 data for 12 molecules are collected here from US8134015B2, “Compound inhibiting in vivo phosphorous transport and medicine containing the same” (Kyowa Hakko Kirin Co., Ltd., priority 2003, dated 2012).

This assay has as its target T1, rat NaPi-2b (Rattus norvegicus, UniProt Q9JJ09).
T1 construct: expressed in transfected cells; host or cells: Xenopus oocytes injected with cRNA
T1 sequence (Q9JJ09 1-695): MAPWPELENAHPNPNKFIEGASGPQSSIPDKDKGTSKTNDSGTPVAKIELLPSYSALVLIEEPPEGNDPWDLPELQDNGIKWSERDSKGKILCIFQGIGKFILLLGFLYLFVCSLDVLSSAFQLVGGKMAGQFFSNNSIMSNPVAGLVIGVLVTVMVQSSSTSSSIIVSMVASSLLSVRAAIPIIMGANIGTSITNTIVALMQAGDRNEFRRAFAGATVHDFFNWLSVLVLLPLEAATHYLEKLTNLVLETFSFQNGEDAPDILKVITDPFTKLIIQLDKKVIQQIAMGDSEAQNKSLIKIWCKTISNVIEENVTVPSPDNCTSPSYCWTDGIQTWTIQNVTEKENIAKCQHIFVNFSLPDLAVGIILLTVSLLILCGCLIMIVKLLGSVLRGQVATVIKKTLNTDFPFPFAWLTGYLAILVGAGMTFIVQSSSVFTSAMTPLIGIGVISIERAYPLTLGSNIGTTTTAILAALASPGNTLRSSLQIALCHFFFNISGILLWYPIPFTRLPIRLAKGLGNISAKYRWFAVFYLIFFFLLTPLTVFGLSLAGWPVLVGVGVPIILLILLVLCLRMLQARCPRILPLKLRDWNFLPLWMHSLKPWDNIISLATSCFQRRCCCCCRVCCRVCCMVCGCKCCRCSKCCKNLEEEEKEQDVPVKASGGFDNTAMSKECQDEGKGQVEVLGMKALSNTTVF
Nature of the assay: Sodium-dependent phosphate uptake of Xenopus oocytes which expressed NaPi-2b (32P). The conditions noted are these: Xenopus oocytes expressing rat NaPi-2b, 32P radioactive phosphorus; read-out: IC50 (phosphate uptake inhibitory activity). Format: cell-based. The essentials:
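Inhibition at 300 μM and 100 μM was read off one inhibition curve of 32P phosphate uptake. Uptake was measured in Xenopus oocytes cultured 2 days after injection of cRNA for cloned rat NaPi-2b.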

The IC50 is the midpoint of a concentration-inhibition curve. For the molecule `CN(CCO)Cc1ccc(C(=O)Nc2ccc(Cl)cc2C(=O)N/N=C/c2ccc(O)cc2)cc1` [Compound 421, N-[4-Chloro-2-(4-hydroxy-benzylidene-hydrazinocarbonyl)-phenyl]-4-{[(2-hydroxy-ethyl)-methyl-amino]-methyl}-benzamide], the IC50 worked out at 29.6 µM.
In the case of `CCN(CCO)Cc1cccc(C(=O)Nc2ccc(Cl)cc2C(=O)N/N=C/c2cccc(F)c2)c1` [Compound 422, N-[4-Chloro-2-(3-fluoro-benzylidene-hydrazinocarbonyl)-phenyl]-3-{[ethyl-(2-hydroxy-ethyl)-amino]-methyl}-benzamide], the 50% inhibitory concentration (IC50) came to 1.15 µM.
For `CCN(CCO)Cc1cccc(C(=O)Nc2ccc(Cl)cc2C(=O)N/N=C/c2ccc(F)cc2)c1` [Compound 423, N-[4-Chloro-2-(4-fluoro-benzylidene-hydrazinocarbonyl)-phenyl]-3-{[ethyl-(2-hydroxy-ethyl)-amino]-methyl}-benzamide], the IC50 is less than 3 µM.
On to `CCN(CCO)Cc1cccc(C(=O)Nc2ccc(Cl)cc2C(=O)N/N=C/c2cccc(C)c2)c1` [Compound 424, N-[4-Chloro-2-(3-methyl-benzylidene-hydrazinocarbonyl)-phenyl]-3-{[ethyl-(2-hydroxy-ethyl)-amino]-methyl}-benzamide], for which the IC50 amounted to 1.79 µM.
In the case of `CCN(CCO)Cc1cccc(C(=O)Nc2ccc(Cl)cc2C(=O)N/N=C/c2ccc(C)cc2)c1` [Compound 425, N-[4-Chloro-2-(4-methyl-benzylidene-hydrazinocarbonyl)-phenyl]-3-{[ethyl-(2-hydroxy-ethyl)-amino]-methyl}-benzamide] it was less than 3 µM.
As for `CCN(CCO)Cc1cccc(C(=O)Nc2ccc(Cl)cc2C(=O)N/N=C/c2ccc(C)c(C)c2)c1` [Compound 426, N-[4-Chloro-2-(3,4-dimethyl-benzylidene-hydrazinocarbonyl)-phenyl]-3-{[ethyl-(2-hydroxy-ethyl)-amino]-methyl}-benzamide], the figure is 1.89 µM.
`CCN(CCO)Cc1cccc(C(=O)Nc2ccc(Cl)cc2C(=O)N/N=C/c2ccc(Cl)c(C(F)(F)F)c2)c1` [Compound 427, N-[4-Chloro-2-(4-chloro-3-trifluoromethyl-benzylidene-hydrazinocarbonyl)-phenyl]-3-{[ethyl-(2-hydroxy-ethyl)-amino]-methyl}-benzamide]: the 50% inhibitory concentration (IC50) is less than 3 µM.
With `CCN(CCO)Cc1cccc(C(=O)Nc2ccc(Cl)cc2C(=O)N/N=C/c2cccc(OC)c2)c1` [Compound 428, N-[4-Chloro-2-(3-methoxy-benzylidene-hydrazinocarbonyl)-phenyl]-3-{[ethyl-(2-hydroxy-ethyl)-amino]-methyl}-benzamide], the IC50 is 1.82 µM.
Turning to `CCN(CCO)Cc1cccc(C(=O)Nc2ccc(Cl)cc2C(=O)N/N=C/c2ccc(OC)cc2)c1` [Compound 429, N-[4-Chloro-2-(4-methoxy-benzylidene-hydrazinocarbonyl)-phenyl]-3-{[ethyl-(2-hydroxy-ethyl)-amino]-methyl}-benzamide], the half-maximal inhibitory concentration (IC50) amounted to 5.88 µM.
As for `CCN(CCO)Cc1cccc(C(=O)Nc2ccc(Cl)cc2C(=O)N/N=C/c2cccc(O)c2)c1` [Compound 430, N-[4-Chloro-2-(3-hydroxy-benzylidene-hydrazinocarbonyl)-phenyl]-3-{[ethyl-(2-hydroxy-ethyl)-amino]-methyl}-benzamide], the figure is 4.53 µM; as for `CCN(CCO)Cc1cccc(C(=O)Nc2ccc(Cl)cc2C(=O)N/N=C/c2ccc(O)cc2)c1` [Compound 431, N-[4-Chloro-2-(4-hydroxy-benzylidene-hydrazinocarbonyl)-phenyl]-3-{[ethyl-(2-hydroxy-ethyl)-amino]-methyl}-benzamide], 5.57 µM.
As for `CCN(CCO)Cc1ccc(C(=O)Nc2ccc(Cl)cc2C(=O)N/N=C/c2cccc(F)c2)cc1` [Compound 432, N-[4-Chloro-2-(3-fluoro-benzylidene-hydrazinocarbonyl)-phenyl]-4-{[ethyl-(2-hydroxy-ethyl)-amino]-methyl}-benzamide], the IC50 was 22.2 µM.
